Experimental findings from patent US6222035A, “[1,2,4] triazolo [1,5-C] pyrimidine derivatives” (Kyowa Hakko Kogyo Co., Ltd., priority 1997, dated 2001) are described below.

The subject of assay [1] is CGS 21680-induced catalepsy in mice. As to the kind of experiment: Activity on CGS 21680-induced Catalepsy. The class given is in vivo, mouse (male ddY). Conditions: 10 mg/kg oral; for Total score (catalepsy): 10 animals, maximum 50 points, control 48; for Number of Animals showing remission: catalepsy score 4 points or less in 10 cases; for inhibition in vivo at 10 mg/kg: Mus musculus, CGS 21680-induced catalepsy, read-out: Remission ratio (%). In a few lines: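 Male ddY mice (5 weeks, 10 per group) received CGS 21680 10 μg/20 μl intracerebroventricularly; test compounds given orally at 10 mg/kg in 0.3% Tween 80 suspension. Catalepsy scored 1 h after dosing on a 4.5 cm bar; total group score (maximum 50) compared with control; ≤4 per animal counted as remission.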

The subject of assay [2] is common marmoset MPTP-treated Parkinson's disease model. As to the kind of experiment: Activity in a Parkinson's Disease Model (common marmoset treated with MPTP). The assay is classed as in vivo.
The target in assay [3] is T1, adenosine A2A receptor (Rattus norvegicus, UniProt P30543).
T1 construct: from tissue; host or cells: rat corpus striatum, washed membrane suspension
As to the kind of experiment: Adenosine receptor binding activity (adenosine A2A receptor binding test), 3H-CGS 21680 binding. The settings on record: 2 h, read-out: A2A receptor inhibition ratio (%); for inhibition at 0.1 µM: 10^-7 M. In a few lines:
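Rat corpus striatum membranes (5 mg wet tissue/mL in 50 mM Tris-HCl pH 7.7, 10 mM MgCl2, adenosine deaminase) incubated with 4.0 nM 3H-CGS 21680 and test compound for 120 min at 25 °C, then filtered and counted. Nonspecific binding defined with 100 μM CPA; % inhibition of specific binding calculated.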

Assay [4] concerns immobility time in forced swimming of mice. As to the kind of experiment: Forced Swimming Method (measurement of immobility time). The class given is in vivo, mouse (male ddY). Conditions: 10 mg/kg oral, Steel-test vs solvent control. The protocol:
Forced Swimming Method (measurement of immobility time)
Ten animals per group of ddY male mice (21 to 26 g in body weight, Japan SLC) were used as the experimental animal. During the preliminary feeding period, they were allowed to have feed and water freely in an animal room of a room temperature of 23±1° C. and a humidity of 55±5%. […] The drugs to be tested were suspended in a 0.3% Tween 80 solution and orally administered one hour before the test. In the negative control group, 10 ml/kg of the 0.3% Tween 80 solution alone was orally administered. Measurement of immobility time was carried out in accordance with the method of Porsolt [Arch. int Pharmacodyn., 229: 327-336 (1977)]. That is, a cylindrical transparent acrylic water tank (10 cm in diameter and 25 cm in height) was filled with 9 cm in depth of water having a temperature of 23±1° C., and mice were forced to swim for 6 minutes. When mice are put into water, they immediately start to swim trying to escape from the tank, but the motion gradually decreases 1 to 2 minutes thereafter. […] In order to reduce effects of daily rhythm, the test was carried out by using 5 of the 10 animals per group in the morning, and the remaining 5 animals in the afternoon. Further, measurement of immobility time was carried out by observing 2 animals at the same time and by not telling the observers distinctions about the solvent-administered group and doses of administered test drugs. Statistical analysis of the results was carried out by a multiple comparison test of the solvent-administered control group and each of the test drug-administered groups by Steel-test.

Assay [5] concerns learned helplessness model in rats. The assay is described as follows: Activity in Learned Helplessness (LH) Model. The assay is classed as in vivo, rat (male SD). The settings on record: 5.0 mg/kg po, electric shock (IES) loaded, Average % ± SE. The protocol: Activity in Learned Helplessness (LH) Model
As experimental animals, 10 to 15 animals per group of SD male rats (220 to 320 g in body weight, 7 week age, Charles River Japan, Atsugi) were used. During the preliminary feeding period, they were allowed to have feed (CRF-1, Oriental Yeast, Tokyo) and water (tap water) freely in an animal room at a room temperature of 22 to 24° C. and a humidity of 50 to 60%. The test compound was orally administered in a dose of 2 ml/kg and 1 hour before FR 1 (fixed ratio schedule 1: repetition of fixed trial conditions) on the second day of the test.
2) Preparation of Learned Helplessness Model
A shuttle box apparatus (TK-401S; manufactured by UNICOM, Chiba) was used as the learning test apparatus. […]
On the second day, a shuttle box test was carried out by slightly modifying the method of Maier et al. [J. Comp. […] The escape reaction was judged success when both of the two escape times in FR 2 were less than 10 seconds, and the escape response was calculated by the following formula: "the number of trials of successful escape/15×100=escape response (%)" Further, migration in the box other than the escape reaction observed during a period between trials (resting time) was used as an index of psychomotor stimulant action by calculating "total number of migration in the box/15×100=intertrial response (%)" […]

T1 sequence (P30543 whole entry): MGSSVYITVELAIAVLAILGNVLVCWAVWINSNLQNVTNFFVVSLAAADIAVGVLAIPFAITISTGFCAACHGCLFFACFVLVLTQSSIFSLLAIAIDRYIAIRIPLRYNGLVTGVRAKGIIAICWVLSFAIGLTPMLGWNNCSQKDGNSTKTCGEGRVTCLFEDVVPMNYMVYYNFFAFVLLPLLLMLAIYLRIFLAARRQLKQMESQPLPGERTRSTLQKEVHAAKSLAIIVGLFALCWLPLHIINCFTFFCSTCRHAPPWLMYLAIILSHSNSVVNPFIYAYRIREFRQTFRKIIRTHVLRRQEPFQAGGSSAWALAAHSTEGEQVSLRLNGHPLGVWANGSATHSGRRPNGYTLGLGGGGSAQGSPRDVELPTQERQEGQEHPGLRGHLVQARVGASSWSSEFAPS

Regarding `Nc1nc(N2CCN(CCCc3ccccc3)CC2)cc2nc(-c3ccco3)nn12` [Compound 63, 5-Amino-2-(2-furyl)-7-[4-(3-phenylpropyl)piperazinyl][1,2,4]triazolor[1,5-c]pyrimidine], in assay [1], the “Total score (catalepsy)” value came out at 7, the “Number of Animals showing remission” value was found to be 10 and the inhibition in vivo at 10 mg/kg was determined as 84%. For the same compound, the “Total spontaneous motor count” value in assay [2] (FIG. 2, common marmoset treated with MPTP) is on record as “increase”. Moreover, the “Efficacy in the common marmoset MPTP-treated Parkinson's disease model” value in assay [2] (total Parkinson's disease symptom score and locomotor count vs vehicle) is “effective”. In addition, the inhibition at 0.1 µM in assay [3] stood at 82%. The inhibition at 0.01 µM in assay [3] (10^-8 M) turned out to be 31%.
Regarding `CNC(=O)c1cnc(N)n2nc(-c3ccco3)nc12` [Compound 167, 5-Amino-2-(2-furyl)-8-methylcarbamoyl[1,2,4]triazolo[1,5-c]pyrimidine], in assay [1], the “Total score (catalepsy)” value came to 9, the “Number of Animals showing remission” value is 10 and the inhibition in vivo at 10 mg/kg was 82%. The inhibition at 0.1 µM in assay [3] came out at 90%. Further, the Immobility time-shortening activity result in assay [4] is “Significant immobility time-shortening activity was observed”.
For the compound `Nc1nc(N2CCN(C(=O)c3ccccc3)CC2)cc2nc(-c3ccco3)nn12` [Compound 45, 5-Amino-7-(4-benzoylpiperazinyl)-2-(2-furyl)[1,2,4]triazolo[1,5-c]pyrimidine], the Intertrial response in assay [5] was determined as 6.7 ± 3.8%. Besides, the Escape response in assay [5] (**: p < 0.01 vs loaded control) was determined as 64 ± 9.8%.
